Reference: ChEMBL document CHEMBL5727703, “Bicyclic hydroxamic acids useful as inhibitors of mammalian histone deacetylase activity” (2020)

Target: T1, Protein deacetylase HDAC6 (Homo sapiens, UniProt Q9UBN7)
T1 sequence (Q9UBN7 whole entry): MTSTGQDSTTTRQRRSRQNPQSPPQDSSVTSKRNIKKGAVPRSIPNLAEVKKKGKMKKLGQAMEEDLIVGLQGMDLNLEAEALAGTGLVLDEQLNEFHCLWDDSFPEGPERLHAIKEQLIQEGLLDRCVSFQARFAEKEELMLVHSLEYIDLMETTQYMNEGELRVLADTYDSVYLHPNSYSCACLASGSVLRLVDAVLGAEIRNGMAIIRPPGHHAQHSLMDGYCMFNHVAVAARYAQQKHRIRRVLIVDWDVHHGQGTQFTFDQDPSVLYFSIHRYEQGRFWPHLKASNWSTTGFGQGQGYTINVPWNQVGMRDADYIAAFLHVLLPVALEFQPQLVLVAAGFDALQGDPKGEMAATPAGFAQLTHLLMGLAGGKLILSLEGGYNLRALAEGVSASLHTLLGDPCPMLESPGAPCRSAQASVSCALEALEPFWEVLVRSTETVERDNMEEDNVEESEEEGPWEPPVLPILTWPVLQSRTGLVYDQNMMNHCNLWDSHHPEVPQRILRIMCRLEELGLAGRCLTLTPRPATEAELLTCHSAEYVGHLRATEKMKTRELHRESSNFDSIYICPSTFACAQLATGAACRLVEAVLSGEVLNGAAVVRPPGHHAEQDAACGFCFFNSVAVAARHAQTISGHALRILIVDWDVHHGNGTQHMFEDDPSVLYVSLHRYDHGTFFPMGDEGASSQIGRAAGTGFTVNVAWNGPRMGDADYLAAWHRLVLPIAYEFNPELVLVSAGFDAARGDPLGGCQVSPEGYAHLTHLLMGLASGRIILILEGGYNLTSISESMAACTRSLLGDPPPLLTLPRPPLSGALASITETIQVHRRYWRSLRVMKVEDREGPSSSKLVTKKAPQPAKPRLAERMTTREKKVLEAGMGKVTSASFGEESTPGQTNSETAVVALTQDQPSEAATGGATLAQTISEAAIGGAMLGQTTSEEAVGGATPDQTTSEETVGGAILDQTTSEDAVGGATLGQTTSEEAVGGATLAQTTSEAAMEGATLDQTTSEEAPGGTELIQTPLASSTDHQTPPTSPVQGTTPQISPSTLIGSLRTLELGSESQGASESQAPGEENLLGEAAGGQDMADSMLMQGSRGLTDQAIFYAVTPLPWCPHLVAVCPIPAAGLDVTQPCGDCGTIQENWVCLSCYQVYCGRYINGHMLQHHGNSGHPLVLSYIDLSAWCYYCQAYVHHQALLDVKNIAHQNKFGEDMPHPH
Experiment: In Vitro Enzymatic Assay: The assay principle is well known and all necessary reagents like enzymes, substrates, developer and reference compounds are commercially available. Stock solutions (10 mM in DMSO) of compounds were serially diluted 1:3 in 11 concentrations with a top concentration of 200 μM for HDAC1,2,3 and 2 μM for HDAC6 and HDAC8. The enzymatic reactions were conducted in a mixture containing assay buffer, bovine serum albumin, HDAC substrate, and a test compound. After enzymatic reaction, developer was added and after an additional incubation time, fluorescence intensity was measured at an excitation wavelength of 360 nm and an emission wavelength of 460 nm. All experiments were performed in duplicate.

Cn1cc(CNCC2CCN(c3nc4cc(C(=O)NO)ccc4o3)CC2)c2ccccc21
IC50: 41 nM
